Laboratory results taken from publication PMC10325900, “A conserved motif in the disordered linker of human MLH1 is vital for DNA mismatch repair and its function is diminished by a cancer family mutation” (Nucleic Acids Research, 2023).
Entries after “also recorded” stand apart in the source; their conditions may differ. No end group written: not given here.

System: MLH1 variant p.Arg385Pro and PMS2
Experiment: MMR complementation assay with peptide, MLH1 p.Arg385Pro variant
Assay type: biochemical, human
Conditions: ConMot-32 at 0, 7.5, 18 and 75 μM
Method: Mismatch repair activity was assessed as described in detail before ([79],[81]) (Supplementary Figure S3). […] Mismatched DNA plasmid substrate (Supplementary Figure S3) prepared according to previously published procedures ([81–83]) was added, and reactions in a final volume of 25 μl were incubated at 37°C for 15 min. Repair efficiency was scored by purifying the mismatched DNA plasmid from the reaction and assessing the fraction of homoduplex sequence by restriction digestion of the mismatched site using EcoRV. The substrate was additionally linearized with AseI.
For complementation assays with peptide, the indicated peptide(s) were used at stock concentrations of 50 or 500 μM in HEPES–KOH 20 mM pH 7.6 and supplemented to the MMR reactions.
In an identical way, we analyzed the effects of the ConMot peptide on MMR activity of the defective human MLH1 missense variant p.Arg385Pro (Figure 5).
Figure 5. […] Several MMR assays were performed; a representative agarose gel is shown (top), and average MMR activity values and standard deviations of three independent experiments were calculated (bottom). […]
In parallel, the single- strand nick is ligated. […] 40- 80% absolute repair, determined as signal intensities of the repair bands divided by sum of signal intensities of all plasmid bands, are optimally achieved and allow accurate determination of MMR activity of variants. […]

SGSSDKVYAHQMVRTDSREQKLDAFLQPLSKP [ConMot-32]
peptide concentrations required for restoration of p.Arg385Pro variant, compared with ConMot-deletion variant: identical peptide concentrations as with the ConMot-deletion variant
restoration of DNA mismatch repair activity of the p.Arg385Pro variant (37°C, 15 min, average of three independent experiments, listed as ConMot peptide): Restoration of MMR activity was again observed; also recorded: could be overcome
